The record followed here is patent US8618080B2, “Immunomodulatory compounds and treatment of diseases related to an overproduction of inflammatory cytokines” (OM Pharma, priority 2006, dated 2013).

One assay deals with human CD4+ T cells. Kind of assay: Cytokine production and proliferation of naïve CD4+ T cells stimulated with anti-CD3 and anti-CD28. As to conditions: 0.02-20 μg/ml. In kind it is cell-based. The procedure:
A series of four compounds of the present invention (OM-197-MP-AC, OM-197-MC-HD, OM-294-BA-MP, OM-197-MP-HD) were tested directly as summarized below:
Naïve CD4^+ T cells were magnetically sorted from healthy blood donor (buffy coat). The cells were stimulated in the presence or not of graded doses of triacyl derivatives (0.02; 0.2; 2 and 20 μg/ml) using plate-bound anti-CD3 (5 μg/ml) and soluble anti-CD28 (1 μg/ml). After 6 days, cytokine levels (IFN-γ and IL-13) were tested in the culture supernatants using ELISA.
FIGS. 3A-3D: Effect of increasing doses of the four compounds tested (OM-197-MP-AC, n=5; OM-197-MC-HD, n=5; OM-294-BA-MP, n=7; OM-197-MP-HD, n=3) on IFN-γ and IL-13 production of human CD4^+ T cells following a polyclonal activation. Results are expressed as the median (±p25/p75) of n independent experiments and show the percentage (%) proliferation or cytokine production of treated cells versus untreated cells (considered as 100%, see dotted line). The statistical analysis was performed using a nonparametric unpaired Mann-Whitney t test (2-tailed).

Assay [1] relates to LACK-sensitised and -challenged BALB/c ByJ mice. Kind of assay: LACK-induced allergic asthma model, other routes of administration. The format is in vivo. As for the experimental part:
43 females BALB/c ByJ mice 6-week old were purchased from the Centre d'Elevage Janvier (CERJ, Le Genest-St-Isle, France). All the mice were sensitised by 2 i.p. injections of 10 μg LACK protein precipitated in 2 mg of Alum (PerBio Science France SAS, Brebières, France) at days 1 and 8 (Julia et al., 2002).
OM-197-MP-AC was given from day 0 to day 12 as described below. All the mice were challenged from day 16 to day 20 with either a solution of LACK (0.15%) or with PBS as indicated below.
Experimental groups were the following: • Group A: untreated, LACK-sensitised and PBS-challenged mice (3 mice) • Group B: untreated LACK-sensitised and -challenged mice (7 mice) • Group C: i.p. OM-197-MP-AC-treated, LACK-sensitised and -challenged mice (5 mice) • Group D: i.g. OM-197-MP-AC-treated, LACK-sensitised and -challenged mice (7 mice) • Group E: s.c. OM-197-MP-AC-treated, LACK-sensitised and -challenged mice (7 mice). • Group F: i.n. OM-197-MP-AC-treated, LACK-sensitised and -challenged mice (7 mice) • Group G: aerosols OM-197-MP-AC-treated, LACK-sensitised and -challenged mice (7 mice)
Mice of groups C, D, E, and G were treated on days: 0, 2, 3, 4, 7, 9, 10, 11, whereas mice of group F (intranasal route) were only treated on days 0, 4, 7, and 11.
Mice of groups C and E were treated i.p. and s.c. respectively with 1 mg/Kg (20 μg per mouse) of OM-197-MP-AC.
Mice of group D were treated intragastrically with 50 mg/Kg (1 mg per mouse) of OM-197-MP-AC.
Mice of group F were treated i.n. with 20[…]μg of OM-197-MP-AC in a volume of 20 μl (OM-197-MP-AC at 2 mg/ml, 10[…]μl/nostril.)
Mice of group G received aerosols of a solution of OM-197-MP-AC at 0.2% (2 mg/ml) for 10 minutes.
All the mice were bled by heart puncture 2 days after the last aerosol. Total IgE were quantified by ELISA using rat EM-95 anti-IgE mAbs as coating antibody and rat anti-IgE mAbs coupled to biotin as second antibody as described elsewhere (Julia et al., 2002).
Individual mice were bled and a canula was inserted into their trachea. Lungs were washed 3 times with 1 ml of warmed PBS. Cells were washed with PBS, resuspended in 300 μl, and counted using a Burker-Türk chamber. For differential BAL cell counts, cytospin preparations were made and stained with Wright/Giemsa.

Turning to `CCCCCCCCCCCC(=O)O[C@H](CCCCCCCCCCC)CC(=O)N[C@@H](CCOP(=O)(O)O)C(=O)NCCC[C@H](COC(=O)CCCCCN)NC(=O)C[C@H](O)CCCCCCCCCCC` [OM-197-MP-AC, (3S, 9R)-3-[(R)-3-dodecanoyloxytetradecanoylamino]-4-oxo-5-aza-9-[(R)-3-hydroxytetradecanoylamino]-decan-1, 10-diol 1-dihydrogenophosphate 10-(6-aminohexanoate)], the T cell proliferation entry with human CD4+ T cells is reported as “unaffected”. In the assay on human CD4+ T cells (6 days, ELISA), the “IFN-γ production by CD4+ T cells” value is given as “unaffected” and the “IL-13 production by CD4+ T cells” value is given as “reduced”. In addition, in assay [1] (aerosols of 0.2% solution, 10 minutes), the “Eosinophils in BAL” value was “same tendency as i.n. treated animals”. The “BAL cell contents versus untreated mice” value in assay [1] (i.g. 50 mg/Kg, unformulated) is given as “did not yield differences”. Further, in assay [1] (i.n. 20 μg per mouse), the “Eosinophil frequencies and numbers in BAL” value was “reduced by half”; the “Total serum IgE” value is listed as “reduced titers”. Moreover, in assay [1] (i.p. 1 mg/Kg), the “Eosinophils in BAL” value is “both reduced percentage and reduced numbers”; the “Total IgE” value is “reduced amounts”. Further, the “BAL cell contents versus untreated mice” value in assay [1] (s.c. 1 mg/Kg) was “did not yield differences”.
